Measured values reported in US7514432B2, “Compounds and methods of treating cell proliferative diseases, retinopathies and arthritis” (Exonhit Therapeutics SA, priority 2003, dated 2009).
Read-outs that look alike come from different tables or passages of the source.

Columns and labels:
[1] = system: HMEC1; experiment: Cell viability assay (MTT), HMEC1; format: cell-based, Human; settings: MTT, 10% FBS, 6-day treatment, 1% DMSO
Outline: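 HMEC1 cells seeded 24 h before dosing, then exposed to 0–200 μM compound (11 concentrations) in medium with 10% FBS and 1% DMSO final, refed every 3 days. Viability read on day 6 by MTT (0.5 mg/ml, 1–5 h at 37 °C), absorbance 550 nm; IC50 from dose-response curves, mean±SEM of 1–8 experiments.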

[2] = system: HCT116; experiment: Cell viability assay (MTT), HCT116; format: cell-based, human; settings: 1% DMSO
Outline: (§1)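 Cells seeded 24 h before treatment with 0–200 μM compound (11 concentrations, 1% DMSO final) in 10% or 0.5% FBS medium; exposure 16 h, 3 or 6 days, fed every 3 days in 6-day runs. MTT 0.5 mg/ml read at 550 nm; IC50 from dose-response curves, mean±SEM.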

[3] = system: MDA-MB-231; experiment: Cell viability assay (MTT), MDA-MB-231; format: cell-based, human; settings: 1% DMSO
Outline: as §1

[4] = system: MCF7; experiment: Cell viability assay (MTT), MCF7; format: cell-based; settings: Homo sapiens, 10% FBS, 1% DMSO
Experimental: Table 12: 6-day cell viability assay (MTT) in the presence of 10% Fetal Bovine Serum and 1% DMSO, in HMEC1, HCT116, MDA-MB-231, MCF7 and NIH3T3 cell lines. 3 10^3 to 15 10^3 cells were seeded in 48-well plates in growth medium containing 10% FBS, with or without various concentrations of test compounds. Cell cultures were fed every 3 days with the appropriate media. Cell viability was determined on day 6. Data were analyzed and IC50s were calculated from dose-response curves using GraphPad Prism. Results summarized in the tables are mean±SEM of 1 to 8 independent experiments.
(§2) Table 14: 3-day cell viability assay (MTT) in the presence of 10% Fetal Bovine Serum and 1% DMSO, in DLD1, HCT116, MDA-MB-231, MCF7 and HeLa cells. 7.5 10^3 to 1.5 10^4 cells were seeded in 48-well plates in growth medium containing 10% FBS, with or without various concentrations of test compounds. Data were analyzed and IC50s were calculated from dose-response curves using GraphPad Prism. Results summarized in the tables are mean±SEM of 1 to 7 independent experiments.
(§3) In order to determine a compound's effect on cell viability, microculture tetrazolium assays (MTT) were performed as described by Carmichael et al. (1996) with modifications. Four human tumoral cell lines, namely HCT116 colon adenocarcinoma, H460 lung carcinoma, MCF-7 and MDA-MB-231 breast carcinoma cell lines, DLD1 colorectal adenocarcinoma, HeLa adenocarcinoma, HepG2 hepatocellular carcinoma. 3 immortalized but non tumorigenic cell lines, namely NIH3T3 mouse fibroblasts (American Type Culture Collection) and primary hepatocytes (Biopredic international), cultured according to their recommendations together with Human Microvasculature Endothelial Cell line HMEC1 (National Center for Infectious Diseases). Briefly, cells were seeded in 48-well plates 24 hours before drug addition. Cells were treated with 0 to 200 μM (11 concentrations) of compound solubilized in DMSO, adjusting the final concentration of DMSO to 1% in the well. 16 hours, and three or six days after treatment, 0.5 mg/ml MTT (Sigma) was added to the medium and cells were incubated for 1-5 hours at 37° C. before solubilization of formazan crystals in 100% DMSO. Absorbance was measured using a spectrophotometer at a wavelength of 550 nm. Data was analyzed using the GraphPad Prism software (GraphPad Software, Inc.), and IC50 (dose leading to 50% cell death) was calculated from the dose-response curves.

[5] = system: DLD1; experiment: Cell viability assay (MTT), DLD1; format: cell-based; settings: Homo sapiens, DLD-1, 72 h, 10% FBS, 3-day treatment, 1% DMSO
Experimental: as §2, §3

[6] = system: HeLa; experiment: Cell viability assay (MTT), HeLa; format: cell-based; settings: Homo sapiens, 72 h, 10% FBS, 3-day treatment, 1% DMSO
Experimental: as §2, §3

[7] = system: HMEC-1 cells; experiment: Tubule formation (tubulogenesis) assay on Matrigel; format: cell-based, Human; settings: HMEC1 on Matrigel; for IC50: Homo sapiens, HMEC-1, 6 to 8 hours, read-out: IC50, tubulogenesis (number of junctions)
Experimental: FIG. 5: Tubulogenesis assay (number of junctions). 2 10^4 Cells were plated on Matrigel-coated wells as described in the material and methods. Pictures of each well were taken after a 7-hours incubation. The “number of junctions” parameter was quantitated using the AngioSys software and data were analyzed using GraphPad Prism for IT50 calculation. Values represent the mean±SEM of 2 to 30 independent experiments.
The endothelial cell tube formation assay, or tubulogenesis assay, is an in vitro assay that is widely accepted to accurately reflect number of terminal stages of the angiogenic process such as attachment, migration and differentiation into tubular structures. In this model, endothelial cells are cultured on a monolayer of reconstituted basement membrane components (Matrigel) and form, in a few hours, capillary-lilke structure. Therefore, this system is a useful and powerful tool for rapidly screening anti-angiogenic agents by monitoring inhibition of endothelial cells morphogenesis on extracellular matrix.
HMEC-1 cell line is cultured in MCDB-131 medium (Sigma) supplemented with 15% FBS, 10 ng/ml recombinant human epidermal growth factor (Invitrogen) and 1 μg/ml hydrocortisone. Cells are cultured to 70-80% confluence. A 96-well plate was coated with Matrigel® Basement Membrane Matrix (Becton Dickinson). 2 10^4 HMEC-1 cells were seeded into each well. The test or control compounds were diluted in DMSO and added to the coated plate. The plate was subsequently incubated for 6 to 8 hours at 37° C., 5% CO2 atmosphere to allow tubule formation. The cells were then incubated with 1.25 μg/ml Calcein AM for 15 minutes at 37° C., 5% CO2. Pictures of each well were taken using a fluorescent microscope and a digital camera (Nikon Coolpix 990). Images were analysed using AngioSys software (TCS Cellworks) that allows quantification of the total tubule length and of the number of junctions, two parameters representative of tubule formation/disruption. Data was analyzed using the GraphPad Prism software, and IT50s (dose leading to 50% inhibition of tubulogenesis) was calculated.

[8] = 10% FBS, 6-day treatment, trihydrochloride
[9] = Homo sapiens, HCT-116, 16 h, 10% FBS, 16-hours treatment
[10] = Homo sapiens, HCT-116, 72 h, 10% FBS, 3-day treatment
[11] = Homo sapiens, HCT-116, 144 h, 0.5% FBS, 6-day treatment
[12] = Homo sapiens, HCT-116, 144 h, 10% FBS, 6-day treatment
[13] = Homo sapiens, MDA-MB-231, 16 h, 10% FBS, 16-hours treatment, read-out: IC50 μM, MDA-MB-231
[14] = Homo sapiens, MDA-MB-231, 72 h, 10% FBS, 3-day treatment, read-out: IC50 μM, MDA-MB-231
[15] = Homo sapiens, MDA-MB-231, 144 h, 0.5% FBS, 6-day treatment, read-out: IC50 (μM), MDA-MB-231

| SMILES | IC50 ([1]; Homo sapiens, HMEC-1, 144 h) [µM] | IC50 ([1]; trihydrochloride) [µM] | IC50 [2, 8] [µM] | IC50 [2, 9] [µM] | IC50 [2, 10] [µM] | IC50 [2, 11] [µM] | IC50 [2, 12] [µM] | IC50 ([3]; 10% FBS, 6-day treatment, trihydrochloride, read-out: IC50 μM, MDA-MB-231) [µM] | IC50 [3, 13] [µM] | IC50 [3, 14] [µM] | IC50 [3, 15] [µM] | IC50 ([4]; MCF7, 72 h, 3-day treatment) [µM] | IC50 ([4]; MCF7, 144 h, 6-day treatment) [µM] | IC50 [5] [µM] | IC50 [6] [µM] | IC50 [7] [µM] | IC50 ([2]; 10% FBS, 6-day treatment, dihydrochloride) [µM] | IC50 ([3]; 10% FBS, 6-day treatment, dihydrochloride, read-out: IC50 μM, MDA-MB-231) [µM] | IC50 ([3]; Homo sapiens, MDA-MB-231, 144 h, 10% FBS, 6-day treatment, read-out: IC50 μM, MDA-MB-231) [µM] | fold more active than reference compound CAI in tubulogenesis [7] [fold] |
| --- | --- | --- | --- | --- | --- | --- | --- | --- | --- | --- | --- | --- | --- | --- | --- | --- | --- | --- | --- | --- |
| CN1CCN(Cc2cc(=O)c(OCCCCCSc3ccnc4cc(C(F)(F)F)ccc34)co2)CC1.Cl.Cl.Cl [EHT 9241, 5-(5-(7-(Trifluoromethyl)quinolin-4-ylthio)pentyloxy)-2-((4-methylpiperazin-1-yl)methyl)-4H-pyran-4-one trihydrochloride] | < 10 | 8.2 | 4 | 31.3 | 5.7 | 6.2 | < 4 | 5.3 | 48.4 | 11.1 | 3.8 | 7.5 | 1.2 | 8.1 | 5.7 | 26 ± 8.7 |  |  |  |  |
| Cl.Cl.O=c1cc(CN2CCOCC2)occ1OCCCCCSc1ccnc2cc(C(F)(F)F)ccc12 [EHT 1864, 5-(5-(7-(Trifluoromethyl)quinolin-4-ylthio)pentyloxy)-2-(morpholinomethyl)-4H-pyran-4-one dihydrochloride] | 27.4 |  |  | 37 | 6.1 | 6.6 | < 4 |  | 126 | 9.9 | 6.3 | 15.2 | 5.6 | 21.9 | 23.3 | 34.9 ± 3.5 | 2.7 | 9.3 | < 9 | 4 |
| Cl.Cl.Cl.O=c1cc(CN2CCNCC2)occ1OCCCCCSc1ccnc2cc(C(F)(F)F)ccc12 [EHT 8560, 5-(5-(7-(Trifluoromethyl)quinolin-4-ylthio)pentyloxy)-2-((piperazin-1-yl)methyl)-4H-pyran-4-one trihydrochloride] | < 10 | 6.1 | 3.8 |  | 4 | 4.6 | < 4 |  |  | 9 | 4 | 9.2 |  | 5.6 | 4.4 | 17 ± 3.6 |  |  |  |  |
